Results published in ChEMBL document CHEMBL3352029, “Ring fusion strategy for the synthesis of anthra[2,3-d]oxazole-2-thione-5,10-dione homologues as DNA topoisomerase inhibitors and as antitumor agents” (Eur J Med Chem, 2014).
The source made the active and inactive calls. The calls are words filed in the database; no cut-off is given here.

How the values were obtained:
[1] = Cytotoxicity against human PC3 cells assessed as inhibition of cell growth after 48 hrs by sulforhodamine B assay; type: functional, cell-based; conditions: PC-3, 48 h
[2] = target: T1, DNA topoisomerase 1 (Homo sapiens) (UniProt P11387); test: Inhibition of human recombinant DNA topoisomerase 1 assessed as reduction in relaxation of supercoiled pHOT DNA at 25 to 50 uM incubated for 45 mins by ethidium bromide staining based gel electrophoresis
T1 sequence (whole entry): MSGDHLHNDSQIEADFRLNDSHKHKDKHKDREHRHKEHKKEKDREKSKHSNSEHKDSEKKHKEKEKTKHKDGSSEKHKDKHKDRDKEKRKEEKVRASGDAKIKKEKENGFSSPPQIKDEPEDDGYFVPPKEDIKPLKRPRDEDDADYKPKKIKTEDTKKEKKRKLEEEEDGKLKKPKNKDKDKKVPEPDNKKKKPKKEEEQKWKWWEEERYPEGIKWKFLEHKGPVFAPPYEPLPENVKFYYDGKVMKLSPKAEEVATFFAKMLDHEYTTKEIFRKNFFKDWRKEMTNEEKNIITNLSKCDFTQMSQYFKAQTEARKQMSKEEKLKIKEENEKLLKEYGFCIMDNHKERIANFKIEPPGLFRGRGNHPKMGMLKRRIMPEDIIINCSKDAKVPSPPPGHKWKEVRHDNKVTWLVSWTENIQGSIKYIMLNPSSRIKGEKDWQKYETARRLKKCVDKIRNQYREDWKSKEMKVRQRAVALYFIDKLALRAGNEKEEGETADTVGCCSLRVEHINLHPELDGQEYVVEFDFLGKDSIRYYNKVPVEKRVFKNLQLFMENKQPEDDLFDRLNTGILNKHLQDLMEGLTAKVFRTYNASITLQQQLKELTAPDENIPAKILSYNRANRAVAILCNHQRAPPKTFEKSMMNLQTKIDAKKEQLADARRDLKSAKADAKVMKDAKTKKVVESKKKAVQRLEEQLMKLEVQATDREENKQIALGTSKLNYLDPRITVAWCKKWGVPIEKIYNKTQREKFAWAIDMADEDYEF

| Compound | IC50 [1] | inhibition [2] |
| --- | --- | --- |
| O=C1c2ccccc2C(=O)c2cc3oc(SCc4ccccc4F)nc3cc21 | > 30 µM | – |
| O=C(CCCl)Nc1cc2c(cc1O)C(=O)c1ccccc1C2=O | 26.7 µM | – |
| O=C1c2ccccc2C(=O)c2cc3oc(SCCN4CCOCC4)nc3cc21 | > 30 µM | – |
| O=C1c2ccccc2C(=O)c2cc3oc(SCCCN4CCCCC4)nc3cc21 | 12.2 µM | Active |
| O=C(CCN1CCOCC1)Nc1cc2c(cc1O)C(=O)c1ccccc1C2=O | > 30 µM | – |
| CCN(CC)CCC(=O)Nc1cc2c(cc1O)C(=O)c1ccccc1C2=O | 23.6 µM | – |
| O=C(CCN1CCCCC1)Nc1cc2c(cc1O)C(=O)c1ccccc1C2=O | > 30 µM | – |
| O=C(CN1CCOCC1)Nc1cc2c(cc1O)C(=O)c1ccccc1C2=O | > 30 µM | – |
| O=C1c2ccccc2C(=O)c2cc3oc(SCc4cccc([N+](=O)[O-])c4)nc3cc21 | > 30 µM | – |
| CCN(CC)CC(=O)Nc1cc2c(cc1O)C(=O)c1ccccc1C2=O | 20.2 µM | – |
| O=C1c2ccccc2C(=O)c2cc3oc(=S)[nH]c3cc21 | > 30 µM | inactive |
| O=C1c2ccccc2C(=O)c2cc3oc(SCCc4ccccc4)nc3cc21 | > 30 µM | – |
| O=C(CN1CCCCC1)Nc1cc2c(cc1O)C(=O)c1ccccc1C2=O | 18.5 µM | – |
